Tests used:
[1] = rabbit study with cutaneous injection (toxicity, irritation, skin sensitization); format: in vivo
[2] = tested on: myofibroblast (scar cell) formation; assay: TGFβ-induced myofibroblast formation (expression of αSMA, calponin and collagen); format: cell-based; conditions: hallmarks of myofibroblasts
Excerpt: Therapeutic options to treat excessive scarring are limited and most are not proven to be effective. Salinomycin is a novel small molecule that blocks myofibroblast (scar cell) formation.

[3] = tested on: peri-implant capsular scarring; assay: silicone discs impregnated with salinomycin placed submuscular in mice, Masson's trichrome staining; format: in vivo, mouse
Excerpt: Salinomycin can also be used effectively as a small molecule coating on silicone or temporary dressings such as PermeaDerm. […] In this study, silicone discs were impregnated with salinomycin or a control solvent and placed submuscular in mice. Surrounding tissue was harvested at 16 weeks and tissue sections were stained with Masson's trichrome.

[4] = tested on: myofibroblast function (cellular contraction); format: cell-based
Excerpt: These novel studies highlight the potential of salinomycin to serve as the basis for new anti-scarring agents.

[5] = tested on: Gram-positive bacteria, including MRSA, MRSE and Mycobacterium tuberculosis; conditions: cited from earlier work
[6] = tested on: human mesenchymal stem cells, human fibroblasts and fibroblasts from mouse, cat and pig; assay: cell culture studies of myofibroblast formation and function; format: cell-based
fungi such as Candida = conditions: cited from earlier work
Gram-negative bacteria = conditions: cited from earlier work

Compound: CC[C@@H](C(=O)[C@@H](C)[C@@H](O)[C@H](C)[C@@H]1O[C@@H]([C@@H](CC)C(=O)O)CC[C@@H]1C)[C@H]1O[C@]2(C=C[C@@H](O)[C@]3(CC[C@@](C)([C@H]4CC[C@](O)(CC)[C@H](C)O4)O3)O2)[C@H](C)C[C@@H]1C [Salinomycin]
- irritation ([1]; in vivo): non-irritating
- reactivity (signs of erythema or edema) ([1]; in vivo): non-reactive
- skin sensitization ([1]; in vivo): do not cause skin sensitization
- toxicity ([1]; low doses required for anti-scarring activity, cutaneous injection): non toxic
- ability of TGFβ to induce expression of αSMA, calponin and collagen [2]: potently blocks
- peri-implant capsular scarring ([3]; silicone implants impregnated with 1 micromolar coating solution, mouse): dramatically reduce
- scar formation (capsule thickness) ([3]; submuscular silicone discs in mice, tissue harvested at 16 weeks, Masson's trichrome): significantly reduced scar formation
- myofibroblast function (cellular contraction) [4]: effectively blocks
- viability [4]: without affecting viability
- antimicrobial activity against Gram-positive bacteria [5]: high antimicrobial activity
- doses that block myofibroblast formation and function [6]: 50 to 200 nM
- activity against fungi (fungi such as Candida): inactive
- activity against Gram-negative bacteria (Gram-negative bacteria): inactive

From patent publication US10285794B2, “Hernia repair device and methods” (priority 2016, dated 2019)
